# Test results published in US8304394B2, “Low side effect pharmaceutical composition containing isoniazid” (priority 2008, dated 2012).
# Like-named read-outs stand apart in the source and are kept apart here.
# Experiments:
# CYP2E1 [1] = biological target: T1, CYP2E1 (Homo sapiens, UniProt P05181); assay: in vitro; conditions: for inhibition at 40 min, 33 µM: pH 7.4; for inhibition at 40 min, 16.5 µM / inhibition at 40 min, 66 µM: pH 7.4, Inhibition of CYP 2E1 (%); for inhibition at 40 min, 16.5 µM: tested concentration 16.5 μM; for inhibition at 40 min, 66 µM: tested concentration 66 μM
# CYP2E1 [2] = biological target: T1, CYP2E1; assay: Chlorzoxazone hydroxylation inhibition (6-OH-CZX by LC/MS/MS); conditions: human, microsomes, pH 7.4
# [3] = biological target: T2, human liver microsomal cytochrome P450 2E1 (CYP2E1) (Homo sapiens, UniProt P05181); assay: as above
# [4] = biological target: T2, human liver microsomal cytochrome P450 2E1 (CYP2E1); conditions: microsomes, 33 µM
# [5] = biological target: T3, cDNA expressed human cytochrome P450 2E1 (CYP2E1) (Homo sapiens, UniProt P05181); conditions: 40 min, pH 7.4
# [6] = biological target: T3, cDNA expressed human cytochrome P450 2E1 (CYP2E1)
# T2 sequence (P05181 whole entry): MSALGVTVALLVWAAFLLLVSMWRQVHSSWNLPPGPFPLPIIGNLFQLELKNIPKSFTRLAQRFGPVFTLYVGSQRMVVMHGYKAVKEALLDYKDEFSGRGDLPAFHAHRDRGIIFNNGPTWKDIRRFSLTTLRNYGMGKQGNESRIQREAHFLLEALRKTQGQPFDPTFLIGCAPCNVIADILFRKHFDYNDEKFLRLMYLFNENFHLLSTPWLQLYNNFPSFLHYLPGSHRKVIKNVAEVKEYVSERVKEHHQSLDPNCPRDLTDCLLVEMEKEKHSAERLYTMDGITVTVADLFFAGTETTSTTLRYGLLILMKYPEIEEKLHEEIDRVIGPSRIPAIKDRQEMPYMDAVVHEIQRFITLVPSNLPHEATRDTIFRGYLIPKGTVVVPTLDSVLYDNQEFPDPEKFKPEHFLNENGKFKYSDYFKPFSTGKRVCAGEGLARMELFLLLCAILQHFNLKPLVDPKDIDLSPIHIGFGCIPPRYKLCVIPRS
# T3 sequence (P05181 whole entry): as above
# T1 sequence (P05181 whole entry): as above
Compound,"inhibition at 40 min, 33 µM (CYP2E1 [1]) [%]","inhibition at 40 min, 16.5 µM (CYP2E1 [1]) [%]","inhibition at 40 min, 66 µM (CYP2E1 [1]) [%]","inhibition at 30 min, 16.5 µM (CYP2E1 [2]) [%]","inhibition at 30 min, 33 µM (CYP2E1 [2]) [%]","inhibition at 30 min, 66 µM (CYP2E1 [2]) [%]",further results
O=C1C[C@@H](c2ccc(O)cc2)Oc2cc(O)cc(O)c21 [Naringenin],36.8 ± 3.97,25.1 ± 7.6,41.8 ± 3.51,19.5 ± 2.02,28.4 ± 2.21,45.2 ± 4.43,–
COc1ccc([C@@H]2CC(=O)c3c(O)cc(O[C@@H]4O[C@H](CO)[C@@H](O)[C@H](O)[C@H]4O[C@@H]4O[C@@H](C)[C@H](O)[C@@H](O)[C@H]4O)cc3O2)cc1O [Neohesperidin],–,–,–,–,–,–,Inhibition of CYP 2E1 (%) ([3]; tested concentration 16.5 μM): 42.81 ± 1.75%; Inhibition of CYP 2E1 (%) ([3]; tested concentration 33 μM): 48.96 ± 2.37%; Inhibition of CYP 2E1 (%) ([3]; tested concentration 66 μM): 58.70 ± 1.06%
CC(Cc1ccc(O)c(O)c1)C(C)Cc1ccc(O)c(O)c1 (stereo not shown) [Nordihydroguaiaretic acid],92.4 ± 2.2,76.5 ± 3.86,97.99 ± 0.66,49.8 ± 2.42,–,96.98 ± 0.19,Inhibition of CYP 2E1 (%) [4]: 67.68. ± 2.24%
O=C(CCc1ccc(O)cc1)c1c(O)cc(O)cc1O [Phloretin],54.7 ± 2.84,42 ± 3.63,66.8 ± 4.79,29.6 ± 3.21,39.8 ± 3.28,50.9 ± 2.09,–
O=C(CCc1ccc(O)cc1)c1c(O)cc(O)cc1O[C@@H]1O[C@H](CO)[C@@H](O)[C@H](O)[C@H]1O [Phloridzin],3.76 ± 3.58,1.25 ± 7.9,1.42 ± 9.28,–,–,–,–
O=C(O)c1ccc(O)c(O)c1 [Protocatechuic acid],19.9 ± 8.95,25.7 ± 12.7,22.8 ± 4.07,–,–,–,–
O=c1c(-c2ccc(O)cc2)coc2c([C@@H]3O[C@H](CO)[C@@H](O)[C@H](O)[C@H]3O)c(O)ccc12 [Puerarin],-4.64 ± 3.47,0.43 ± 2.31,-12.9 ± 2.75,–,–,–,–
O=c1ccc2ccc(O)cc2o1 [Umbelliferone],–,-280 ± 19.5,–,–,–,–,Inhibition of CYP 2E1 (%) ([5]; 33 µM): −571.97 ± 117.56%; Inhibition of CYP 2E1 (%) ([5]; 66 µM): −1081.56 ± 168.00%
O=c1cc(-c2ccc(O)cc2)oc2c([C@@H]3O[C@H](CO)[C@@H](O)[C@H](O)[C@H]3O)c(O)cc(O)c12 [Vitexin],–,–,–,23.1 ± 1.19,30.6 ± 0.78,38.7 ± 1.62,–
COc1c(O)cc(O)c2c(=O)cc(-c3ccccc3)oc12 [Wongonin],–,–,–,–,–,–,Inhibition of CYP 2E1 (%) ([6]; tested concentration 33 μM): 21.87 ± 1.90%
O=C(O)c1cc(O)c(O)c(O)c1 [gallic acid],42.7 ± 7.36,35.6 ± 10,48.2 ± 4.2,10.5 ± 1.12,18.8 ± 2.03,28 ± 1.56,–
O=C(O)/C=C/c1ccccc1 [trans-Cinnamic acid],4.66 ± 6.5,5.71 ± 10.5,7.1 ± 6.95,–,–,–,–
C=CC(=C)CCC=C(C)C [β-Myrcene],–,–,–,53.4 ± 4.93,75.5 ± 2.14,76.5 ± 2.18,–
O=c1cc(-c2ccccc2)oc2ccc3ccccc3c12 [β-naphthoflavone],–,–,–,–,–,–,Inhibition of CYP 2E1 (%) ([6]; tested concentration 16.5 μM): 6.52 ± 6.64%; Inhibition of CYP 2E1 (%) ([6]; tested concentration 33 μM): 16.83 ± 0.96%; Inhibition of CYP 2E1 (%) ([6]; tested concentration 66 μM): 15.40 ± 12.94%
(−)-Epicatechin-3-gallate,–,–,–,–,–,–,Inhibition of CYP 2E1 (%) ([3]; tested concentration 16.5 μM): 30.31 ± 1.27%; Inhibition of CYP 2E1 (%) ([3]; tested concentration 33 μM): 34.84 ± 1.72%; Inhibition of CYP 2E1 (%) ([3]; tested concentration 66 μM): 42.92 ± 0.65%
